Source: patent publication US8158650B2, “Substituted phenylmethyl bicyclocarboxyamide compounds” (Pfizer Inc., priority 2006, dated 2012)

Molecular target: human VR1 (Homo sapiens, UniProt Q8NER1)
Experiment: Human VR1 antagonist assay (Ca2+ imaging)
Format: cell-based
Details: intracellular Ca2+ imaging (fura-2) in cells expressing human VR1 receptors; stimulus (capsaicin or acid) not given
Text: VR1 antagonistic activity can be determined by the Ca^2+ imaging assay using human VR1 highly expressing cells. The cells that highly express human VR1 receptors are obtainable from several different conventional methods. The one standard method is cloning from human Dorsal Root Ganglion (DRG) or kidney according to the methods such as described in the journal article; Nature, 389, pp 816-824, 1997. Alternatively VR1 receptors highly expressing human keratinocytes are also known and published in the journal article (Biochemical and Biophysical Research Communications, 291, pp 124-129, 2002). […] Furthermore, the method to up regulate human VR1 gene, which is usually a silent gene or don't produce detectable level of VR1 receptors, is also available to obtain propriety cells. Such genetic modification method was described in detail; Nat. Biotechnol., 19, pp 440-445, 2001.
The cells that express human VR1 receptors were maintained in culture flask at 37° C. in an environment containing 5% CO2 until use in the assay. The intracellular Ca^2+ imaging assay to determine VR1 antagonistic activities were done by following procedures.
The culture medium was removed from the flask and fura-2/AM fluorescent calcium indicator was added to the flask at a concentration of 5 μM in the medium. The flask was placed in CO2 incubator and incubated for 1 hour. Then the cells expressing the human VR1 receptors were detached from the flask follow by washing with phosphate buffer saline, PBS(−) and re-suspended in assay buffer. The 80 μl of aliquot of cell suspension (3.75×10^5 cells/ml) was added to the assay plate and the cells were spun down by centrifuge (950 rpm, 20° C., 3 minutes).
The compounds of the examples were tested in the Human VR1 antagonist assay described above.
The capsaicin-induced changes in the intracellular calcium concentration were monitored using FDSS 6000 (Hamamatsu Photonics, Japan), a fluorometric imaging system. The cell suspension in Krebs-Ringer HEPES (KRH) buffer (115 mM NaCl, 5.4 mM KCl, 1 mM MgSO4, 1.8 mM CaCl2, 11 mM D-Glucose, 25 mM HEPES, 0.96 mM Na2HPO4, pH 7.3) were pre-incubated with varying concentrations of the test compounds or KRH buffer (buffer control) for 15 minutes at room temperature under the dark condition. Then capsaicin solution, which gives 300 nM in assay mixture, was automatically added to the assay plate by the FDSS 6000.
The acid-induced changes in the intracellular calcium concentration were monitored using FDSS 6000 (Hamamatsu Photonics, Japan), a fluorometric imaging system. The cell suspension in resting buffer (HBSS supplemented with 10 mM HEPES, pH 7.4) were pre-incubated with varying concentrations of the test compounds or resting buffer (buffer control) for 15 minutes at room temperature under the dark condition. The cells were automatically added the stimulating solution (HBSS supplemented with MES, final assay buffer pH5.8) by the FDSS 6000.
The monitoring of the changes in the fluorescence signals (λex=340 nm/380 nm, λem=510-520 nm) was initiated at 1 minute prior to the addition of capsaicin solution or acidic buffer and continued for 5 minute.

Sequence of human VR1 (Q8NER1 whole entry): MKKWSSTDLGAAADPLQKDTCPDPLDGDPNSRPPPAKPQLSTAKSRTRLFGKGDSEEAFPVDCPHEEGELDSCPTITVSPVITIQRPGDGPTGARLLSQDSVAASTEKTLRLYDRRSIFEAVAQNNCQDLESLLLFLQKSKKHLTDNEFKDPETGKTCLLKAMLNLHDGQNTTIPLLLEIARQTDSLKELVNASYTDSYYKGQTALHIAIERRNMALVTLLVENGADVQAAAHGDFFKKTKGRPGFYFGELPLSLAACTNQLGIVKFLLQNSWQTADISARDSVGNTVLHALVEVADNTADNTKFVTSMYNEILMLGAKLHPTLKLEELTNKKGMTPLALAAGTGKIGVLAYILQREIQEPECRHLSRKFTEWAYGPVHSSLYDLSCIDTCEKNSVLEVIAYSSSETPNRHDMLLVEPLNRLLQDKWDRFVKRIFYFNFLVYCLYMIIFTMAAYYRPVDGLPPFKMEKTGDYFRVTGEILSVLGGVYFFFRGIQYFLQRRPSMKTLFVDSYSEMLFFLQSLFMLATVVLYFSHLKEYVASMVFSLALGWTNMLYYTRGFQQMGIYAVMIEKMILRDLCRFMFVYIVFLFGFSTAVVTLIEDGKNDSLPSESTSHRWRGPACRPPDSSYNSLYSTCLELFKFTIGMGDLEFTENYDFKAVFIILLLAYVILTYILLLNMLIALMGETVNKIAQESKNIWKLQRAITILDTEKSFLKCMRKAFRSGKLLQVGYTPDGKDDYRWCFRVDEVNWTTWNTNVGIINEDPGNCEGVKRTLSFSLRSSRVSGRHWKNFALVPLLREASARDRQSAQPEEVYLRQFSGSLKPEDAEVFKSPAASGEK

Compound | IC50
COc1cc(CNC(=O)c2ccc3nc(C(C)(C)C)ccc3c2)c(Br)cc1O [Example D3, N-(2-Bromo-4-hydroxy-5-methoxybenzyl)-2-tert-butylquinoline-6-carboxamide] | 403 nM
Oc1cc2c(cc1O)CN(C(=S)NCCc1ccc(Cl)cc1)CCC2 [Capsazepine, reference compound] | 237 to 455 nM
Cc1cc([C@H](C)NC(=O)c2ccc3nc(C(C)(C)C)ccc3c2)c(Cl)cc1O [Example D7, 2-tert-Butyl-N-[(1S)-1-(2-chloro-4-hydroxy-5-methylphenyl)ethyl]quinoline-6-carboxamide] | 31.9 nM
COc1cc(Cl)c([C@@H](C)NC(=O)c2ccc3nc(C(C)(C)C)ccc3c2)cc1C [Example D4, 2-tert-Butyl-N-[(1R)-1-(2-chloro-4-methoxy-5-methylphenyl)ethyl]quinoline-6-carboxamide] | 270 nM
Cc1cc([C@@H](C)NC(=O)c2cnc3cc(C(F)(F)F)ccc3c2)c(Cl)cc1O [Example C2, N-[(1R)-1-(2-Chloro-4-hydroxy-5-methylphenyl)ethyl]-7-(trifluoromethyl)quinoline-3-carboxamide] | 667 nM
Cc1cc(C(C)NC(=O)c2ccc3nc(C(C)(C)C(F)(F)F)ccc3c2)c(F)cc1CO (stereo not drawn) [Example D14, N-{1-[2-Fluoro-4-(hydroxymethyl)-5-methylphenyl]ethyl}-2-(2,2,2-trifluoro-1,1-dimethylethyl)quinoline-6-carboxamide] | 65.5 nM
COc1cc([C@@H](C)NC(=O)c2ccc3nc(C(C)(C)C)ccc3c2)c(Cl)cc1O [Example D1, 2-tert-Butyl-[(1R)-1-(2-chloro-4-hydroxy-5-methoxyphenyl)ethyl]quinoline-6-carboxamide] | 74.1 nM
Cc1cc([C@@H](C)NC(=O)c2ccc3nc(C(C)(C)C(F)(F)F)ccc3c2)c(Cl)cc1O [Example D13, N-[(1R)-1-(2-Chloro-4-hydroxy-5-methylphenyl)ethyl]-2-(2,2,2-trifluoro-1,1-dimethylethyl)quinoline-6-carboxamide] | 31.8 nM
COc1cc(CNC(=O)c2ccc3cc(C(C)(C)C)ccc3n2)c(Cl)cc1O [Example B1] | 590 nM
Cc1cc(CNC(=O)c2ccc3nc(C(C)(C)C)ccc3c2)c(Cl)cc1O [Example D10, 2-tert-Butyl-N-(2-chloro-4-hydroxy-5-methylbenzyl)quinoline-6-carboxamide] | 311 nM
COc1cc([C@@H](C)NC(=O)c2ccc3nc(C(C)(C)C)ccc3c2)ccc1O [Example D15, 2-tert-Butyl-N-[(1R)-1-(4-hydroxy-3-methoxyphenyl)ethyl]quinoline-6-carboxamide] | 254 nM
COc1cc(Cl)c([C@@H](C)NC(=O)c2ccc3cc(C(C)(C)C)ccc3c2)cc1C [Example A1, 6-tert-Butyl-N-[(1R)-1-(2-chloro-4-methoxy-5-methylphenyl)ethyl]-2-naphthamide] | 93.5 nM
COc1cc(CNC(=O)c2ccc3nc(C(C)(C)C)ccc3c2)c(Cl)cc1O [Example D2, 2-tert-Butyl-N-(2-chloro-4-hydroxy-5-methoxybenzyl)quinoline-6-carboxamide] | 176 nM
Cc1cc([C@@H](C)NC(=O)c2ccc3cc(C(C)(C)C)ccc3c2)c(Cl)cc1O [Example A2, 6-tert-Butyl-N-[(1R)-1-(2-chloro-4-hydroxy-5-methylphenyl)ethyl]-2-naphthamide] | 34.2 nM
Cc1cc([C@@H](C)NC(=O)c2ccc3nc(C(C)(C)C)ccc3c2)c(Cl)cc1O [Example D5, 2-tert-butyl-N-[(1R)-1-(2-chloro-4-hydroxy-5-methylphenyl)ethyl]5 quinoline-6-carboxamide] | 331 nM
C[C@@H](NC(=O)c1ccc2nc(C(C)(C)C)ccc2c1)c1ccc(CO)cc1 [Example D8, 2-tert-Butyl-N-{(1R)-1-[4-(hydroxymethyl)phenyl]ethyl}quinoline-6-carboxamide] | 434 nM
Cc1cc(CNC(=O)c2ccc3nc(C(C)(C)C)ccc3c2)c(F)cc1O [Example D11, 2-tert-Butyl-N-(2-fluoro-4-hydroxy-5-methylbenzyl)quinoline-6-carboxamide] | 501 nM
COc1cc(Cl)c([C@@H](C)NC(=O)c2ccc3nc(C(C)(C)C(F)(F)F)ccc3c2)cc1C [Example D12, N-[(1R)-1-(2-Chloro-4-methoxy-5-methylphenyl)ethyl]-2-(2,2,2-trifluoro-1,1-dimethylethyl)quinoline-6-carboxamide] | 181 nM
